Measured values as given in the supplement of paper PMC6045584.
± gives the standard deviation of the averaged measurements.

Assays:
CANERTINIB = compound: C=CC(=O)Nc1cc2c(Nc3ccc(F)c(Cl)c3)ncnc2cc1OCCCN1CCOCC1 [CANERTINIB]; test: surviving fraction relative to DMSO-only wells; higher = less growth inhibition; conditions: exposure time: 5 days
Procedure, shortened: (§1)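 Log-phase tumour cell lines were seeded at 250–500 cells per well in 384-well plates. After 24 hours they were exposed continuously for five days to inhibitors at 0.5, 1, 5, 10, 50, 100, 500 and 1000 nM. Viability was read by CellTiter-Glo luminescence after 10 minutes at room temperature, and surviving fraction is luminescence normalised to the median of DMSO-only wells. Each line was screened three times and kept only if replicate Pearson r >0.7 and median Z' >0.3.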

BI-2536 = compound: CC[C@@H]1C(=O)N(C)c2cnc(Nc3ccc(C(=O)NC4CCN(C)CC4)cc3OC)nc2N1C1CCCC1 [BI-2536]; test: as above; conditions: exposure time: 5 days
Procedure, shortened: as §1

Test System | surviving fraction (CANERTINIB; 0.5 nM) | surviving fraction (CANERTINIB; 1 nM) | surviving fraction (CANERTINIB; 5 nM) | surviving fraction (CANERTINIB; 10 nM) | surviving fraction (CANERTINIB; 50 nM) | surviving fraction (CANERTINIB; 100 nM) | surviving fraction (CANERTINIB; 500 nM) | surviving fraction (CANERTINIB; 1000 nM) | surviving fraction (BI-2536; 0.5 nM) | surviving fraction (BI-2536; 1 nM) | surviving fraction (BI-2536; 5 nM) | surviving fraction (BI-2536; 10 nM) | surviving fraction (BI-2536; 50 nM) | surviving fraction (BI-2536; 100 nM) | surviving fraction (BI-2536; 500 nM) | surviving fraction (BI-2536; 1000 nM)
SG43 HEADNECK | 1.05 ± 0.074 | 1.06 ± 0.1 | 0.772 ± 0.21 | 0.816 ± 0.14 | 0.387 ± 0.23 | 0.223 ± 0.027 | 0.265 ± 0.05 | 0.183 ± 0.0075 | 0.902 ± 0.22 | 1.04 ± 0.23 | 0.734 ± 0.16 | 0.715 ± 0.099 | 0.454 ± 0.079 | 0.323 ± 0.12 | 0.17 ± 0.051 | 0.0543 ± 0.014
SIHA CERVIX | 0.897 ± 0.035 | 0.809 ± 0.04 | 0.978 ± 0.023 | 0.867 ± 0.049 | 0.951 ± 0.14 | 0.977 ± 0.055 | 0.871 ± 0.027 | 0.727 ± 0.027 | 1.11 ± 0.027 | 1.04 ± 0.065 | 0.351 ± 0.025 | 0.263 ± 0.031 | 0.262 ± 0.016 | 0.301 ± 0.0078 | 0.214 ± 0.014 | 0.147 ± 0.015
SJSA1 BONE | 1.23 ± 0.12 | 1.2 ± 0.07 | 1.08 ± 0.15 | 1.31 ± 0.055 | 0.0523 ± 0.0021 | 1.64 ± 0.052 | 1.66 ± 0.053 | 1.74 ± 0.12 | 1.01 ± 0.067 | 1.02 ± 0.068 | 0.882 ± 0.011 | 0.252 ± 0.033 | 0.174 ± 0.01 | 0.191 ± 0.0061 | 0.267 ± 0.02 | 0.236 ± 0.015
SKBR3 BREAST | 0.831 ± 0.019 | 0.79 ± 0.017 | 0.68 ± 0.051 | 0.6073 ± 0.0035 | 0.48 ± 0.025 | 0.4 ± 0.024 | 0.224 ± 0.0067 | 0.176 ± 0.0098 | 0.914 ± 0.12 | 0.363 ± 0.043 | 0.158 ± 0.026 | 0.189 ± 0.02 | 0.255 ± 0.063 | 0.356 ± 0.045 | 0.321 ± 0.018 | 0.301 ± 0.025
SUM44 BREAST | 0.778 ± 0.15 | 0.719 ± 0.22 | 0.797 ± 0.16 | 0.796 ± 0.18 | 1.05 ± 0.063 | 0.948 ± 0.16 | 0.84 ± 0.14 | 0.778 ± 0.12 | 0.797 ± 0.039 | 0.378 ± 0.025 | 0.163 ± 0.0069 | 0.166 ± 0.022 | 0.158 ± 0.0027 | 0.154 ± 0.013 | 0.162 ± 0.013 | 0.1503 ± 0.00058
SUM159 BREAST | 0.973 ± 0.011 | 0.961 ± 0.028 | 0.948 ± 0.028 | 0.9347 ± 0.0076 | 0.9437 ± 0.0046 | 0.942 ± 0.022 | 0.916 ± 0.012 | 0.9197 ± 0.009 | 0.968 ± 0.2 | 0.967 ± 0.19 | 0.953 ± 0.18 | 0.864 ± 0.17 | 0.194 ± 0.035 | 0.167 ± 0.077 | 0.131 ± 0.057 | 0.134 ± 0.05
SYO1 SYNOVIAL | 0.836 ± 0.061 | 0.791 ± 0.045 | 0.793 ± 0.027 | 0.784 ± 0.029 | 0.86 ± 0.029 | 0.871 ± 0.038 | 0.666 ± 0.019 | 0.498 ± 0.022 | 1.02 ± 0.015 | 0.884 ± 0.045 | 0.108 ± 0.036 | 0.0738 ± 0.015 | 0.0606 ± 0.0062 | 0.0441 ± 0.0071 | 0.0205 ± 0.0005 | 0.0188 ± 0.0014
T47D BREAST | 0.926 ± 0.051 | 0.898 ± 0.024 | 0.922 ± 0.058 | 0.899 ± 0.037 | 0.973 ± 0.021 | 0.96 ± 0.012 | 0.893 ± 0.015 | 0.874 ± 0.031 | 0.981 ± 0.018 | 0.871 ± 0.016 | 0.551 ± 0.017 | 0.488 ± 0.01 | 0.374 ± 0.019 | 0.53 ± 0.035 | 0.2606 ± 0.0011 | 0.276 ± 0.011
U2OS BONE | 0.951 ± 0.022 | 0.95 ± 0.041 | 0.942 ± 0.025 | 0.962 ± 0.047 | 0.991 ± 0.0096 | 0.991 ± 0.029 | 0.877 ± 0.017 | 0.889 ± 0.059 | 1.04 ± 0.027 | 1.05 ± 0.063 | 0.902 ± 0.023 | 0.302 ± 0.023 | 0.215 ± 0.0062 | 0.199 ± 0.01 | 0.188 ± 0.0087 | 0.171 ± 0.013
VCAP PROSTATE | 0.902 ± 0.036 | 0.904 ± 0.026 | 0.954 ± 0.046 | 0.935 ± 0.12 | 1.19 ± 0.083 | 1.17 ± 0.1 | 0.859 ± 0.09 | 0.737 ± 0.037 | 0.925 ± 0.13 | 0.243 ± 0.0099 | 0.0727 ± 0.012 | 0.0763 ± 0.015 | 0.154 ± 0.031 | 0.228 ± 0.031 | 0.07 ± 0.0027 | 0.0443 ± 0.013
VP229 BREAST | 0.724 ± 0.051 | 0.682 ± 0.085 | 0.638 ± 0.11 | 0.514 ± 0.061 | 0.467 ± 0.021 | 0.42 ± 0.033 | 0.201 ± 0.019 | 0.154 ± 0.044 | 0.94 ± 0.022 | 0.729 ± 0.081 | 0.373 ± 0.093 | 0.234 ± 0.019 | 0.254 ± 0.042 | 0.247 ± 0.019 | 0.242 ± 0.025 | 0.19 ± 0.011
YAMATO SYNOVIAL | 0.878 ± 0.19 | 0.857 ± 0.088 | 0.909 ± 0.065 | 0.938 ± 0.091 | 1.27 ± 0.1 | 1.28 ± 0.067 | 1.06 ± 0.083 | 1.1 ± 0.074 | 1.05 ± 0.061 | 0.888 ± 0.05 | 0.345 ± 0.0062 | 0.315 ± 0.0095 | 0.324 ± 0.013 | 0.256 ± 0.014 | 0.279 ± 0.018 | 0.336 ± 0.027
ZR751 BREAST | 0.993 ± 0.042 | 0.957 ± 0.044 | 0.948 ± 0.052 | 0.957 ± 0.093 | 0.802 ± 0.026 | 0.77 ± 0.062 | 0.648 ± 0.052 | 0.618 ± 0.029 | 1.22 ± 0.024 | 1.27 ± 0.16 | 0.902 ± 0.075 | 0.655 ± 0.0093 | 0.72 ± 0.13 | 0.865 ± 0.094 | 0.645 ± 0.039 | 0.434 ± 0.061
